We go through 29 compounds from ChEMBL document CHEMBL3045440, “Determination of stereoselective interaction between enantiomers of chiral gamma-aryl-1H-1,2,4-triazole derivatives and Penicillium digitatum” (J Agric Food Chem, 2009).

Series [1] has as its system Penicillium digitatum. Put plainly: Fungicidal activity against Penicillium digitatum at 50 mg/l at 26 degC after 48 hr by growth inhibition test. Type of series: functional. To be noted: read-out: GI.
Series [2] addresses T1, Cytochrome P450 14alpha-demethylase (Penicillium digitatum, UniProt A1XG20).
T1 sequence (A1XG20 whole entry): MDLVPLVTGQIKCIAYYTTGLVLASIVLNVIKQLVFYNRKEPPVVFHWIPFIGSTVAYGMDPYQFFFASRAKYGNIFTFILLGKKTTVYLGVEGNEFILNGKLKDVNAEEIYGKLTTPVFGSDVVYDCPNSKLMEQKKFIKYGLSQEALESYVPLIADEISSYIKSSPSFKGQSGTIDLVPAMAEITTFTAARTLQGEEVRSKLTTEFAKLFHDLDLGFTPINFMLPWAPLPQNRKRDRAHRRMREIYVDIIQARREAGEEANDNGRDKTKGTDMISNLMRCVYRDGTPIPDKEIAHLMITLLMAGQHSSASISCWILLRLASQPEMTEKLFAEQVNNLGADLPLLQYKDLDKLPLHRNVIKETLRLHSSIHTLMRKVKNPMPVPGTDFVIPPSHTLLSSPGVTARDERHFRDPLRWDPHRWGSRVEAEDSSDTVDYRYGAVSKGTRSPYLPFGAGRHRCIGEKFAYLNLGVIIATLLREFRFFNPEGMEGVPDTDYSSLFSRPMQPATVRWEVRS
Put plainly: Binding affinity to Penicillium digitatum CYP51 expressed in Escherichia coli BL21 (DE3) cells by binding spectrum method.

Series [3] addresses T1, Cytochrome P450 14alpha-demethylase. Description: Binding affinity to Penicillium digitatum CYP51 expressed in Escherichia coli BL21 (DE3) cells assessed as absorption spectral changes with maximum at 390 nm and trough at 420 nm (type I) by binding spectrum method.
Series [4] has the same target. Description: Binding affinity to Penicillium digitatum CYP51 expressed in Escherichia coli BL21 (DE3) cells assessed as absorption spectral changes with maximum at 420-430 nm and trough at 385-400 nm (type II) by binding spectrum method.
The subject of series [5] is Penicillium digitatum. Put plainly: Fungicidal activity against Penicillium digitatum at 26 degC after 48 hr by growth inhibition test. Format: functional, organism-based.
For series [6], the target named is T1, Cytochrome P450 14alpha-demethylase. Description: Binding affinity to Penicillium digitatum CYP51 expressed in Escherichia coli BL21 (DE3) cells assessed as absorption spectral changes with maximum at 420-430 nm and trough at 390-410 nm (type II) by binding spectrum method.

Molecules are shown by their SMILES. In brackets after ≈: the same amount, converted by molar mass.

The Kd is the concentration at which binding is half-saturated. `CCCC[C@@H](CCn1cncn1)c1ccc(Cl)cc1`: in the series on Penicillium digitatum [1], the inhibition of growth at 50 µg/mL came to 83%. Besides, the Kd in series [2] (read-out: Kd) turned out to be 340 nM. In addition, the result in series [3] was Active.

The term EC50 denotes the midpoint of the concentration-response curve. A higher EC50 goes with a need for much substance. `CC[C@H](CCn1cncn1)c1ccccc1`: the inhibition of growth at 50 µg/mL in the series on Penicillium digitatum [1] was 84%. Further, in series [2] (read-out: Kd), the equilibrium dissociation constant (Kd) stood at 34 nM. Besides, the result in series [4] was Active. This compound also gave an EC50 in the series on Penicillium digitatum [5] of 0.577 µg/mL (≈ 2.68 µM).

For the compound `CC(C)(C)C(=O)C(Oc1ccc(Cl)cc1)n1cncn1` (stereo not given) [TRIADIMEFON], the inhibition of growth at 50 µg/mL in the series with Penicillium digitatum [1] was 100%. In addition, the Kd in series [2] (read-out: Kd) came to 990 nM. The compound further registered an EC50 in the series on Penicillium digitatum [5] of 2.27 µg/mL (≈ 7.73 µM). The outcome in series [6] was Active.

Consider `CC[C@@H](CCn1cncn1)c1ccc(OC)cc1`, for which, in the series on Penicillium digitatum [1], the inhibition of growth at 50 µg/mL amounted to 77%. In series [2] (read-out: Kd), the Kd came out at 505 nM. In addition, the result in series [4] was Active.

Turning to `CCC[C@@H](CCn1cncn1)c1ccc(F)cc1`, the inhibition of growth at 50 µg/mL in the series with Penicillium digitatum [1] stood at 78%. For the same compound, in series [2] (bl21-de3), the equilibrium dissociation constant (Kd) entry is recorded as “Not Active”.

Take `CC[C@H](CCn1cncn1)c1ccc(OC)cc1`: in the series on Penicillium digitatum [1], the inhibition of growth at 50 µg/mL came to 89%. Further, the Kd in series [2] (read-out: Kd) came to 63 nM. Besides, in series [4], the outcome was Active.

As to `CC(C)(C)C(O)C(Oc1ccc(Cl)cc1)n1cncn1` (stereo not given) [TRIADIMENOL], in the series with Penicillium digitatum [1], the inhibition of growth at 50 µg/mL came out at 100%. In series [2] (read-out: Kd), the dissociation constant (Kd) was 640 nM. In the series with Penicillium digitatum [5], the EC50 is 1.44 µg/mL (≈ 4.87 µM). In series [6], the outcome was Active.

`CCCC[C@@H](CCn1cncn1)c1ccc(C)cc1`: the inhibition of growth at 50 µg/mL in the series with Penicillium digitatum [1] was 87%. Besides, the Kd in series [2] (read-out: Kd) stood at 1220 nM. The result in series [4] was Active.

As for `CC[C@H](CCn1cncn1)c1ccc(F)cc1`, the inhibition of growth at 50 µg/mL in the series on Penicillium digitatum [1] is 88%. For the same compound, the Kd in series [2] (read-out: Kd) was 81 nM. Besides, the outcome in series [4] was Active.

For `CC(C)(C)C(O)/C(=C/c1ccc(Cl)cc1Cl)n1cncn1` (stereo not given) [DINICONAZOLE], the inhibition of growth at 50 µg/mL in the series on Penicillium digitatum [1] was 100%. Moreover, the EC50 in the series on Penicillium digitatum [5] came out at 0.09 µg/mL (≈ 0.276 µM).

Consider `CCCC[C@@H](CCn1cncn1)c1ccc(F)cc1`, for which the inhibition of growth at 50 µg/mL with Penicillium digitatum [1] was 95%. The Kd in series [2] (read-out: Kd) turned out to be 150 nM. The outcome in series [4] was Active. Besides, the EC50 in the series with Penicillium digitatum [5] came out at 1.15 µg/mL (≈ 4.4 µM).

`CCCC[C@@H](CCn1cncn1)c1ccccc1`: the inhibition of growth at 50 µg/mL in the series with Penicillium digitatum [1] was 65%. For the same compound, the equilibrium dissociation constant (Kd) entry in series [2] (bl21-de3) is “Not Active”.

As for `CC(C)(C)C(O)(CCc1ccc(Cl)cc1)Cn1cncn1` (stereo not given) [TEBUCONAZOLE], the inhibition of growth at 50 µg/mL with Penicillium digitatum [1] was 100%. In addition, the Kd in series [2] (read-out: Kd) was 320 nM. In the series on Penicillium digitatum [5], this compound showed an EC50 of 0.37 µg/mL (≈ 1.2 µM). In addition, the outcome in series [3] was Active.

In the case of `CC[C@@H](CCn1cncn1)c1ccc(F)cc1`, in the series on Penicillium digitatum [1], the inhibition of growth at 50 µg/mL turned out to be 78%. For the same compound, in series [2] (read-out: Kd), the dissociation constant Kd came to 230 nM. Moreover, the result in series [4] was Active.

As to `CCCC[C@H](CCn1cncn1)c1ccc(OC)cc1`, the inhibition of growth at 50 µg/mL with Penicillium digitatum [1] came out at 100%. In series [2] (read-out: Kd), the Kd came out at 49 nM. Further, in series [4], the result was Active. In the series with Penicillium digitatum [5], this compound showed an EC50 of 0.62 µg/mL (≈ 2.27 µM).

For the compound `CC(C)(C)C(O)/C(=C\c1ccc(Cl)cc1Cl)n1cncn1` (stereo not given) [DINICONAZOLE], in series [2] (read-out: Kd), the Kd came out at 120 nM. In addition, the result in series [6] was Active.

As to `CCCC[C@H](CCn1cncn1)c1ccc(F)cc1`, in the series with Penicillium digitatum [1], the inhibition of growth at 50 µg/mL was determined as 100%. For the same compound, in series [2] (read-out: Kd), the dissociation constant Kd is 90 nM. In addition, the result in series [4] was Active. Besides, the concentration giving a half-maximal response (EC50) with Penicillium digitatum [5] was 0.88 µg/mL (≈ 3.37 µM).

Turning to `CCC[C@@H](CCn1cncn1)c1ccccc1`, the inhibition of growth at 50 µg/mL in the series on Penicillium digitatum [1] is 79%. Further, the equilibrium dissociation constant (Kd) in series [2] (read-out: Kd) came to 210 nM. Moreover, the result in series [4] was Active.

For `CCCC[C@H](CCn1cncn1)c1ccc(Cl)cc1`, the inhibition of growth at 50 µg/mL with Penicillium digitatum [1] stood at 88%. Moreover, in series [2] (read-out: Kd), the equilibrium dissociation constant (Kd) was 350 nM. In addition, the result in series [4] was Active.

Turning to `CCCC[C@H](CCn1cncn1)c1ccc(C)cc1`, the inhibition of growth at 50 µg/mL in the series on Penicillium digitatum [1] worked out at 93%. The Kd in series [2] (read-out: Kd) came to 46 nM. The outcome in series [4] was Active.

Take `CCCC[C@@H](CCn1cncn1)c1ccc(OC)cc1`: in the series on Penicillium digitatum [1], the inhibition of growth at 50 µg/mL turned out to be 97%. In addition, the Kd in series [2] (read-out: Kd) was determined as 180 nM. Also, the outcome in series [4] was Active. The compound also returned an EC50 in the series on Penicillium digitatum [5] of 0.97 µg/mL (≈ 3.55 µM).

As to `CCC[C@H](CCn1cncn1)c1ccc(F)cc1`, the inhibition of growth at 50 µg/mL in the series on Penicillium digitatum [1] is 89%. The Kd in series [2] (read-out: Kd) turned out to be 250 nM. In series [4], the outcome was Active.

With `CCCC[C@H](CCn1cncn1)c1ccccc1`, in the series on Penicillium digitatum [1], the inhibition of growth at 50 µg/mL stood at 73%. Moreover, the dissociation constant (Kd) in series [2] (read-out: Kd) amounted to 760 nM. Besides, the result in series [4] was Active.

As to `CC[C@H](CCn1cncn1)c1ccc(Cl)cc1`, in the series with Penicillium digitatum [1], the inhibition of growth at 50 µg/mL is 92%. For the same compound, in series [2] (read-out: Kd), the dissociation constant Kd was found to be 150 nM. Besides, the outcome in series [4] was Active. The compound further came in with an EC50 with Penicillium digitatum [5] of 0.587 µg/mL (≈ 2.35 µM).

For `CCC[C@H](CCn1cncn1)c1ccc(OC)cc1`, in the series on Penicillium digitatum [1], the inhibition of growth at 50 µg/mL stood at 90%. Further, the Kd in series [2] (read-out: Kd) is 150 nM. The result in series [4] was Active. The EC50 in the series with Penicillium digitatum [5] turned out to be 0.603 µg/mL (≈ 2.33 µM).

Consider `CC[C@@H](CCn1cncn1)c1ccccc1`, for which, in the series on Penicillium digitatum [1], the inhibition of growth at 50 µg/mL is 20%. The equilibrium dissociation constant (Kd) in series [2] (read-out: Kd) came to 1660 nM. In addition, the outcome in series [4] was Active. Further, the EC50 in the series on Penicillium digitatum [5] amounted to 89.6 µg/mL (≈ 416 µM).

For `CCC[C@@H](CCn1cncn1)c1ccc(OC)cc1`, the inhibition of growth at 50 µg/mL with Penicillium digitatum [1] was less than 5%. In addition, in series [2] (bl21-de3), the Kd result is “Not Active”. In the series with Penicillium digitatum [5], this compound yielded an EC50 of 138 µg/mL (≈ 534 µM).

As for `CC[C@@H](CCn1cncn1)c1ccc(Cl)cc1`, the inhibition of growth at 50 µg/mL with Penicillium digitatum [1] turned out to be 23%. For the same compound, the Kd in series [2] (read-out: Kd) was 1140 nM. Moreover, in series [4], the outcome was Active. For the same compound, the response in the series with Penicillium digitatum [5] was half-maximal at 61.1 µg/mL (≈ 245 µM) (EC50).

As for `CCC[C@H](CCn1cncn1)c1ccccc1`, in the series on Penicillium digitatum [1], the inhibition of growth at 50 µg/mL came out at 90%. The Kd in series [2] (read-out: Kd) turned out to be 140 nM. For the same compound, the outcome in series [4] was Active.
